From the supplement of paper PMC8960247
Structures can show the parent of a compound that is named as a salt. ± gives the standard error.

Tests used:
UMB1949 (TSC2-deficient) = experiment: relative viability vs DMSO (fraction); higher = less cytotoxic; settings: serum: 0.1% FBS, 72 h;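 note: renal angiomyolipoma cell lines screened in 384-well plates, viability normalized per plate to DMSO-treated cells, each plate carrying 50 nM rapamycin and 1 µM staurosporine controls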
621-102 (TSC2-deficient) [1] = experiment: as above; settings: serum: 0.1% FBS, 72 h
621-103 (TSC2-rescued) = experiment: relative viability vs DMSO; higher = less cytotoxic; settings: serum: 10% FBS, 72 h
621-102 (TSC2-deficient) [2] = experiment: as above; settings: serum: 10% FBS, 72 h

| Structure (SMILES) | relative viability (UMB1949 (TSC2-deficient); 0.0128 nM) | relative viability (UMB1949 (TSC2-deficient); 0.064 nM) | relative viability (UMB1949 (TSC2-deficient); 0.32 nM) | relative viability (UMB1949 (TSC2-deficient); 1.6 nM) | relative viability (UMB1949 (TSC2-deficient); 8 nM) | relative viability (UMB1949 (TSC2-deficient); 40 nM) | relative viability (UMB1949 (TSC2-deficient); 200 nM) | relative viability (UMB1949 (TSC2-deficient); 1000 nM) | relative viability (UMB1949 (TSC2-deficient); 5000 nM) | relative viability (621-102 (TSC2-deficient) [1]; 0.0128 nM) | relative viability (621-102 (TSC2-deficient) [1]; 0.064 nM) | relative viability (621-102 (TSC2-deficient) [1]; 0.32 nM) | relative viability (621-102 (TSC2-deficient) [1]; 1.6 nM) | relative viability (621-102 (TSC2-deficient) [1]; 8 nM) | relative viability (621-102 (TSC2-deficient) [1]; 40 nM) | relative viability (621-102 (TSC2-deficient) [1]; 200 nM) | relative viability (621-102 (TSC2-deficient) [1]; 1000 nM) | relative viability (621-102 (TSC2-deficient) [1]; 5000 nM) | relative viability (621-103 (TSC2-rescued); 0.0001 µM) [%] | relative viability (621-103 (TSC2-rescued); 0.001 µM) [%] | relative viability (621-103 (TSC2-rescued); 0.01 µM) [%] | relative viability (621-103 (TSC2-rescued); 0.1 µM) [%] | relative viability (621-103 (TSC2-rescued); 1 µM) [%] | relative viability (621-103 (TSC2-rescued); 10 µM) [%] | relative viability (621-102 (TSC2-deficient) [2]; 0.0001 µM) [%] | relative viability (621-102 (TSC2-deficient) [2]; 0.001 µM) [%] | relative viability (621-102 (TSC2-deficient) [2]; 0.01 µM) [%] | relative viability (621-102 (TSC2-deficient) [2]; 0.1 µM) [%] | relative viability (621-102 (TSC2-deficient) [2]; 1 µM) [%] | relative viability (621-102 (TSC2-deficient) [2]; 10 µM) [%] |
| --- | --- | --- | --- | --- | --- | --- | --- | --- | --- | --- | --- | --- | --- | --- | --- | --- | --- | --- | --- | --- | --- | --- | --- | --- | --- | --- | --- | --- | --- | --- |
| CCN1CCN(Cc2ccc(-c3cc4c(N[C@H](C)c5ccccc5)ncnc4[nH]3)cc2)CC1 [AEE788] | 1.02 | 0.971 | 1 | 1.07 | 0.964 | 1.01 | 0.767 | 0.305 | 0.00689 | 1.06 | 0.968 | 1.01 | 0.786 | 0.612 | 0.64 | 0.156 | 0.034 | 0.00903 | 94.8 ± 1.2 | 107.1 ± 0.38 | 103.4 ± 0.79 | 102 ± 3.6 | 100 ± 3.8 | 10.7 ± 1 | 106 ± 2.1 | 107.3 ± 1 | 106 ± 4.4 | 104 ± 1.6 | 100 ± 3.6 | 36.7 ± 12 |
| O=C(Nc1c[nH]nc1-c1nc2ccc(CN3CCOCC3)cc2[nH]1)NC1CC1 [AT9283] | 1.11 | 1.02 | 0.973 | 0.996 | 0.963 | 0.0359 | 0.0512 | 0.00329 | 0.00115 | 1.09 | 0.98 | 0.952 | 0.945 | 0.718 | 0.031 | 0.0179 | 0.00825 | 0.00249 | 73 ± 1.1 | 89.4 ± 2.2 | 81.5 ± 2.2 | 71.4 ± 2.8 | 31.5 ± 3.9 | 14.6 ± 0.54 | 94.6 ± 1.6 | 103.4 ± 0.37 | 106 ± 1.6 | 85.8 ± 4.9 | 53.12 ± 0.43 | 15.2 ± 1.2 |
| NC(=O)Nc1cc(-c2cccc(F)c2)sc1C(=O)N[C@H]1CCCNC1 [AZD7762] | 0.976 | 0.981 | 1.07 | 1.08 | 0.341 | 0.00441 | 0.00215 | 0.000402 | 0.00128 | 0.981 | 0.92 | 0.935 | 0.731 | 0.244 | 0.0116 | 0.00396 | 0.000482 | 0.00108 | 99 ± 1.1 | 98.96 ± 0.94 | 98.3 ± 0.4 | 83.6 ± 0.97 | 22.27 ± 0.029 | 3.24 ± 0.41 | 102 ± 4.3 | 108 ± 1.8 | 88.76 ± 0.17 | 32.13 ± 0.32 | 17.1 ± 0.87 | 6.55 ± 0.31 |
| O=C(/C=C/c1cccc(S(=O)(=O)Nc2ccccc2)c1)NO [Belinostat(PXD101)] | 1.11 | 0.925 | 1.01 | 0.986 | 0.987 | 0.854 | 0.277 | 0.00312 | 0.001 | 1.07 | 1.04 | 1.01 | 1.03 | 1.18 | 0.923 | 0.646 | 0.271 | 0.0621 | 97.7 ± 1.1 | 97 ± 2.6 | 97.46 ± 0.88 | 92.7 ± 1.6 | 77.17 ± 0.11 | 9.88 ± 0.36 | 109 ± 3.7 | 111.1 ± 1.1 | 107 ± 1.1 | 94.4 ± 1.9 | 85.6 ± 1.9 | 44.6 ± 0.66 |
| COC(=O)Nc1nc2cc(Sc3ccccc3)ccc2[nH]1 [Fenbendazole] | 1.05 | 0.807 | 1.02 | 0.969 | 0.983 | 0.605 | 0.00543 | 0.00256 | 0.00375 | 1.37 | 1.35 | 1.68 | 1.39 | 0.898 | 0.314 | 0.0634 | 0.0446 | 0.0203 |  |  |  |  |  |  |  |  |  |  |  |  |
| CN1CC[C@H](c2c(O)cc(O)c3c(=O)cc(-c4ccccc4Cl)oc23)[C@H](O)C1 [Flavopiridol hydrochloride] | 0.977 | 1 | 0.989 | 1.04 | 1.15 | 0.855 | 0.00837 | 0.00534 | 0.00482 | 0.701 | 0.787 | 0.805 | 0.875 | 0.747 | 0.227 | 0.009 | 0.0076 | 0.0171 |  |  |  |  |  |  |  |  |  |  |  |  |
| CN1CC[C@H](c2c(O)cc(O)c3c(=O)cc(-c4ccccc4Cl)oc23)[C@H](O)C1 [Flavopiridol(Alvocidib)] | 1.12 | 1.16 | 1.04 | 1.21 | 1.08 | 0.923 | 0.00682 | 0.00291 | 0.00348 | 1.14 | 1.2 | 1.24 | 1.15 | 0.972 | 0.212 | 0.00428 | 0.00239 | 0.00377 |  |  |  |  |  |  |  |  |  |  |  |  |
| CC(C)C[C@@H](C=O)NC(=O)[C@H](CC(C)C)NC(=O)[C@H](CC(C)C)NC(=O)OCc1ccccc1 [MG132] | 0.846 | 0.0534 | 0.0466 | 0.00704 | 0.00406 | 0.00242 | 0.00153 | 0.000971 | 0.00561 | 0.611 | 0.586 | 0.383 | 0.272 | 0.148 | 0.00944 | 0.00319 | 0.00253 | 0.0116 |  |  |  |  |  |  |  |  |  |  |  |  |
| Cc1ccc(NC(=O)c2ccc(CN3CCN(C)CC3)cc2)cc1Nc1nc(-c2cccnc2)cs1 [Masitinib(AB1010)] | 1.09 | 1.21 | 1.16 | 1.18 | 1.09 | 1.19 | 0.96 | 0.156 | 0.0043 | 0.869 | 0.9 | 0.886 | 0.951 | 0.909 | 0.82 | 0.683 | 0.277 | 0.0135 |  |  |  |  |  |  |  |  |  |  |  |  |
| Nc1ccccc1NC(=O)c1ccc(CNc2nccc(-c3cccnc3)n2)cc1 [Mocetinostat] | 1.24 | 1.09 | 1.05 | 1.02 | 0.951 | 0.578 | 0.0241 | 0.00165 | 0.00203 | 0.964 | 0.98 | 0.857 | 0.954 | 0.735 | 0.401 | 0.174 | 0.084 | 0.00442 |  |  |  |  |  |  |  |  |  |  |  |  |
| Cc1[nH]c2ccccc2c1CCNCc1ccc(/C=C/C(=O)NO)cc1 [Panobinostat (LBH589)] | 1.08 | 1.02 | 0.955 | 0.779 | 0.0132 | 0.00793 | 0.0069 | 0.00422 | 0.00261 | 1.34 | 0.935 | 1.1 | 0.909 | 0.458 | 0.228 | 0.0101 | 0.00297 | 0.00203 |  |  |  |  |  |  |  |  |  |  |  |  |
| CO[C@H]1C[C@@H]2CC[C@@H](C)[C@@](O)(O2)C(=O)C(=O)N2CCCC[C@H]2C(=O)O[C@H]([C@H](C)C[C@@H]2CC[C@@H](O)[C@H](OC)C2)CC(=O)[C@H](C)/C=C(\C)[C@@H](O)[C@@H](OC)C(=O)[C@H](C)C[C@H](C)/C=C/C=C/C=C/1C [Rapamycin(Sirolimus)] | 0.874 | 0.825 | 0.847 | 0.773 | 0.818 | 0.841 | 0.593 | 0.466 | 0.364 | 0.506 | 0.495 | 0.584 | 0.441 | 0.385 | 0.388 | 0.254 | 0.277 | 0.222 |  |  |  |  |  |  |  |  |  |  |  |  |
